Laboratory results from patent publication US20080220103A1, “METHOD FOR TREATING/CONTROLLING/KILLING FUNGI AND BACTERIA ON LIVING ANIMALS” (priority 2005, published 2008).
In brackets after ≈: the same amount, converted by molar mass. Several values for one entry are separate records, joined by “and”; a condition that tells them apart may be missing. Identical values can stand only once. Like-named read-outs stand apart in the source and are kept apart here.

How the values were obtained:
[1] = test system: T. mentagrophytes; experiment: MIC, modified CLSI M38A broth dilution; format: cell-based, Trichophyton mentagrophytes
Protocol: (§1) Minimum Inhibitory Concentration (MIC): Minimum inhibitory concentrations of synthetic and semisynthetic and natural products against dermatophytes were determined using a modification of the Clinical Laboratory Standards Institute (CLSI, formerly National Committee of Clinical Laboratory Standards, NCCLS) M38A standard method for dermatophytes, while MIC of these agents against Candida species were determined using the CLSI M27-A2 methodology. The method used to determine the MIC against bacteria was based on the CLSI document M7-A7.
(§2) For dermatophytes, serial dilutions of terbinafine, tolnaftate were prepared in a range of 0.004-2 μg/ml, while for miconazole concentrations ranged between 0.015-8 μg/ml. Finally, for essential oils, the concentrations tested were between 0.03-16 μg/ml. The only exception was tea tree oil where dilutions were prepared in a range of 0.0078-4 μg/ml. The MIC was read at 4 days post inoculation and defined as the lowest concentration of an agent to inhibit 80% of fungal growth as compared to the growth control (Table 2).

[2] = test system: All dermatophytes; experiment: MIC, modified CLSI M38A, pooled dermatophytes; format: cell-based, E. floccosum, T. rubrum, T. mentagrophytes
Protocol: as §1, §2
(§3) In the following Tables, MIC50 and MIC90 are defined as the minimal concentrations of a compound that can inhibit 50% and 90% of the tested organisms, respectively.

[3] = test system: E. floccosum; experiment: Minimum fungicidal concentration (Canton et al.); format: cell-based, Epidermophyton floccosum; conditions: for MFC: Epidermophyton floccosum
Protocol: (§4) Minimum fungicidal concentration (MFC): The minimum fungicidal concentrations of various agents were determined using the technique described by Canton et al. (Antimicrob Agents Chemother. 2004 8:2477-82). In that method, fungal conidia were collected following growth on potato dextrose agar (PDA) plates and were used to inoculate 96-well plates containing different concentrations of agents. Following incubation at 35° C. for 4 days (for dermatophytes) or 24 hours (for yeast), wells showing no visible growth were cultured to determine the MFC (defined as the lowest concentration of a given agent that kills>99.999% of fungal conidia or spores). The MFC value represents the level of the agent at which spores or conidia were killed.

[4] = test system: T. rubrum; experiment: Minimum fungicidal concentration (Canton et al.); format: cell-based, Trichophyton rubrum; conditions: for MFC: Trichophyton rubrum
Protocol: as §4

[5] = test system: T. mentagrophytes; experiment: Minimum fungicidal concentration (Canton et al.); format: cell-based, Trichophyton mentagrophytes; conditions: for MFC: Trichophyton mentagrophytes
Protocol: as §4

[6] = test system: All dermatophytes; experiment: Minimum fungicidal concentration, pooled dermatophytes; format: cell-based, E. floccosum, T. rubrum, T. mentagrophytes; conditions: All dermatophytes, n = 18
Protocol: as §4, §3

[7] = test system: C. albicans; experiment: MIC, CLSI M27-A2; format: cell-based, Candida albicans
Protocol: as §1
(§5) The remaining essential oils were prepared in a dilution range of 0.03-16 μg/ml. For Candida the MIC was read at 24 hours and defined as the lowest concentration to inhibit 50% of fungal growth as compared to the growth control (Table 4).

[8] = test system: C. parapsilosis; experiment: MIC, CLSI M27-A2; format: cell-based, Candida parapsilosis
Protocol: as §1, §5

[9] = test system: All yeasts; experiment: MIC, CLSI M27-A2, pooled yeasts; format: cell-based, C. albicans, C. parapsilosis; conditions: n = 12
Protocol: as §1, §5, §3

[10] = test system: S. aureus; experiment: MIC, CLSI M7-A7, Mueller-Hinton; format: cell-based, Staphylococcus aureus; conditions: for MIC Range: n = 6 printed
Protocol: as §1
(§6) For bacterial species, the medium used to evaluate the antibacterial activity of agents and essential oils was Mueller-Hinton (Oxoid Ltd., Basingstoke, Hampshire, England). Serial dilutions of miconazole, terbinafine, and tolnaftate were prepared in a range of 0.125-64 μg/ml and serial dilutions of tea tree oil were prepared in a range of 0.0078-4 μg/ml, while those for the rest of the essential oils were prepared in a range 0.031-16 μg/ml.

[11] = test system: S. epidermidis; experiment: MIC, CLSI M7-A7, Mueller-Hinton; format: cell-based; conditions: Staphylococcus epidermidis
Protocol: as §1, §6

[12] = Trichophyton mentagrophytes, T. mentagrophytes, n = 6
[13] = Candida albicans, C. albicans, n = 6
[14] = Lodderomyces parapsilosis, C. parapsilosis, n = 6
[15] = Staphylococcus aureus, S. aureus

Cc1cccc(N(C)C(=S)Oc2ccc3ccccc3c2)c1 [Tolnaftate, tolnaftate]
MIC Range ([1]; T. mentagrophytes, n = 6): 0.008 to 0.125 µg/mL
MIC ([1]; Trichophyton mentagrophytes, T. mentagrophytes strain 1720): 0.008 µg/mL (≈ 0.026 µM)
MIC ([1]; Trichophyton mentagrophytes, T. mentagrophytes strain 2124): 0.06 µg/mL (≈ 0.195 µM)
MIC ([1]; Trichophyton mentagrophytes, T. mentagrophytes strain 2125): 0.06 µg/mL (≈ 0.195 µM)
MIC ([1]; Trichophyton mentagrophytes, T. mentagrophytes strain 2126): 0.004 µg/mL (≈ 0.013 µM)
MIC ([1]; Trichophyton mentagrophytes, T. mentagrophytes strain 2127): 0.06 µg/mL (≈ 0.195 µM)
MIC ([1]; Trichophyton mentagrophytes, T. mentagrophytes strain 2128): 0.125 µg/mL (≈ 0.407 µM)
MIC50 [1, 12]: 0.06 µg/mL (≈ 0.195 µM)
MIC90 [1, 12]: 0.125 µg/mL (≈ 0.407 µM)
MIC50 ([2]; n = 18): 0.06 µg/mL (≈ 0.195 µM)
MIC90 ([2]; n = 18): 0.125 µg/mL (≈ 0.407 µM)
MIC Range ([2]; n = 18, listed as tolnaftate): 0.008 to 0.125 µg/mL
MFC range (row MIC Range) ([3]; E. floccosum, n = 6): 0.25 to 0.5 µg/mL
MFC ([3]; E. floccosum strain 1666, read-out: MFC): 0.25 µg/mL (≈ 0.813 µM)
MFC ([3]; E. floccosum strain 1798, read-out: MFC): 0.25 µg/mL (≈ 0.813 µM)
MFC ([3]; E. floccosum strain 1925, read-out: MFC): 0.25 µg/mL (≈ 0.813 µM)
MFC ([3]; E. floccosum strain 1926, read-out: MFC): 0.5 µg/mL (≈ 1.63 µM)
MFC ([3]; E. floccosum strain 1961, read-out: MFC): 0.5 µg/mL (≈ 1.63 µM)
MFC ([3]; E. floccosum strain 2165, read-out: MFC): 0.25 µg/mL (≈ 0.813 µM)
MFC ([3]; E. floccosum, n = 6, read-out: MFC, row MIC50): 0.25 µg/mL (≈ 0.813 µM)
MFC ([3]; E. floccosum, n = 6, read-out: MFC, row MIC90): 0.5 µg/mL (≈ 1.63 µM)
MFC range (row MIC Range) ([4]; T. rubrum, n = 6): 0.06 to 0.125 µg/mL
MFC ([4]; T. rubrum strain 1967, read-out: MFC): 0.06 µg/mL (≈ 0.195 µM)
MFC ([4]; T. rubrum strain 2098, read-out: MFC): 0.06 µg/mL (≈ 0.195 µM)
MFC ([4]; T. rubrum strain 2246, read-out: MFC): 0.06 µg/mL (≈ 0.195 µM)
MFC ([4]; T. rubrum strain 8063, read-out: MFC): 0.06 µg/mL (≈ 0.195 µM)
MFC ([4]; T. rubrum strain 8071, read-out: MFC): 0.06 µg/mL (≈ 0.195 µM)
MFC ([4]; T. rubrum strain 8092, read-out: MFC): 0.125 µg/mL (≈ 0.407 µM)
MFC ([4]; T. rubrum, n = 6, read-out: MFC, row MIC50): 0.06 µg/mL (≈ 0.195 µM)
MFC ([4]; T. rubrum, n = 6, read-out: MFC, row MIC90): 0.125 µg/mL (≈ 0.407 µM)
MFC range (row MIC Range) ([5]; T. mentagrophytes, n = 6): 0.5 to 1 µg/mL
MFC ([5]; T. mentagrophytes strain 2124, read-out: MFC): 0.5 µg/mL (≈ 1.63 µM)
MFC ([5]; T. mentagrophytes strain 2125, read-out: MFC): 0.5 µg/mL (≈ 1.63 µM)
MFC ([5]; T. mentagrophytes strain 2127, read-out: MFC): 1 µg/mL (≈ 3.25 µM)
MFC ([5]; T. mentagrophytes strain 2128, read-out: MFC): 1 µg/mL (≈ 3.25 µM)
MFC ([5]; T. mentagrophytes, n = 6, read-out: MFC, row MIC50): 0.5 µg/mL (≈ 1.63 µM)
MFC ([5]; T. mentagrophytes, n = 6, read-out: MFC, row MIC90): 1 µg/mL (≈ 3.25 µM)
MFC Range [6]: 0.06 to 1.0 µg/mL and 0.06 to 1 µg/mL
MFC Range ([6]; listed as tolnaftate): 0.06 to 0.125 µg/mL
MFC ([6]; read-out: MFC, row MIC50): 0.125 µg/mL (≈ 0.407 µM)
MFC ([6]; read-out: MFC, row MIC90): 1 µg/mL (≈ 3.25 µM)
MIC ([7]; C. albicans strain 8280 (multi-resistant)): >64 µg/mL
MIC Range ([7]; C. albicans, n = 6): > 64 µg/mL
MIC ([7]; Candida albicans, 24 h, C. albicans strain 1740, 50% inhibition, 24 hours, read-out: MIC): > 64 µg/mL
MIC ([7]; Candida albicans, C. albicans strain 2108, read-out: MIC): 64 µg/mL (≈ 208 µM)
MIC ([7]; Candida albicans, C. albicans strain 2153, read-out: MIC): > 64 µg/mL
MIC ([7]; Candida albicans, C. albicans strain 8280 (multi-resistant), read-out: MIC): > 64 µg/mL
MIC ([7]; Candida albicans, C. albicans strain 8283, read-out: MIC): > 64 µg/mL
MIC ([7]; Candida albicans, C. albicans strain 8364, read-out: MIC): > 64 µg/mL
MIC50 [7, 13]: > 64 µg/mL
MIC90 [7, 13]: > 64 µg/mL
MIC Range ([8]; C. parapsilosis, n = 6): 0.5 to 16 µg/mL
MIC ([8]; Lodderomyces parapsilosis, C. parapsilosis strain 7629): 0.5 µg/mL (≈ 1.63 µM)
MIC ([8]; Lodderomyces parapsilosis, C. parapsilosis strain 7668): 8 µg/mL (≈ 26 µM)
MIC ([8]; Lodderomyces parapsilosis, C. parapsilosis strain 7672): 8 µg/mL (≈ 26 µM)
MIC ([8]; Lodderomyces parapsilosis, C. parapsilosis strain 7995): 8 µg/mL (≈ 26 µM)
MIC ([8]; Lodderomyces parapsilosis, C. parapsilosis strain 8148): 8 µg/mL (≈ 26 µM)
MIC ([8]; Lodderomyces parapsilosis, C. parapsilosis strain 8442): 16 µg/mL (≈ 52 µM)
MIC ([8]; Lodderomyces parapsilosis, C. parapsilosis, the other isolates (not #7629)): 8 to 16 µg/mL (≈ 26 to 52 µM)
MIC50 [8, 14]: 8 µg/mL (≈ 26 µM)
MIC90 [8, 14]: 8 µg/mL (≈ 26 µM)
MIC50 [9]: 16 µg/mL (≈ 52 µM)
MIC90 [9]: > 64 µg/mL
MIC ([10]; S. aureus strain 733): >64 µg/mL
MIC ([10]; S. aureus strain 734): >64 µg/mL
MIC ([10]; S. aureus strain 8470): >64 µg/mL
MIC Range ([10]; S. aureus, listed as TOLNAFTATE): >64 µg/mL
MIC Range ([10]; S. aureus, listed as tolnaftate): > 64 µg/mL
MIC50 [10, 15]: > 64 µg/mL
MIC90 [10, 15]: > 64 µg/mL
MIC ([10]; Staphylococcus aureus, S. aureus strain 730, 80% inhibition, 16 h, read-out: MIC): > 64 µg/mL
MIC ([10]; Staphylococcus aureus, S. aureus strain 732, read-out: MIC): > 64 µg/mL
MIC ([11]; S. epidermidis strain 8472, read-out: MIC): 2 µg/mL (≈ 6.51 µM)
MIC ([11]; S. epidermidis strain 8473, read-out: MIC): 16 µg/mL (≈ 52 µM)
MIC ([11]; S. epidermidis strain 8474, read-out: MIC): 2 µg/mL (≈ 6.51 µM)
MIC ([11]; S. epidermidis strain 8475, read-out: MIC): > 64 µg/mL
MIC ([11]; S. epidermidis strain 8476, read-out: MIC): > 64 µg/mL
MIC ([11]; S. epidermidis strain 8477, read-out: MIC): > 64 µg/mL
MIC ([11]; S. epidermidis, two strains, read-out: MIC values): 2 µg/mL (≈ 6.51 µM)
MIC50 ([11]; S. epidermidis, n = 6): 16 µg/mL (≈ 52 µM)
MIC90 ([11]; S. epidermidis, n = 6): > 64 µg/mL
